From the NIST ThermoML archive (doi:10.1016/j.jct.2004.07.025)
Where “and” joins values, the source holds several entries; their conditions need not be identical. Equal values may be shown once.

Details: Liquid

CCOC(=O)c1ccccc1C(=O)OCC [diethyl phthalate]
Details | vapor or sublimation pressure
303.19 K, Calculated from knudsen effusion weight loss | 0.000165 kPa
307.62 K, Calculated from knudsen effusion weight loss | 0.00026 kPa
308.1 K, Calculated from knudsen effusion weight loss | 0.000271 kPa
313.34 K, Calculated from knudsen effusion weight loss | 0.000456 kPa
318.54 K, Calculated from knudsen effusion weight loss | 0.000769 kPa
323.04 K, Calculated from knudsen effusion weight loss | 0.00116 kPa
323.33 K, Calculated from knudsen effusion weight loss | 0.001179 kPa
328.33 K, Calculated from knudsen effusion weight loss | 0.001842 kPa
333.55 K, Calculated from knudsen effusion weight loss | 0.002839 kPa
333.58 K, Calculated from knudsen effusion weight loss | 0.002895 kPa
333.68 K, Calculated from knudsen effusion weight loss | 0.00286 kPa
335.05 K, Closed cell (Static) method | 0.0037 kPa
335.07 K, Closed cell (Static) method | 0.0037 kPa
337.65 K, Calculated from knudsen effusion weight loss | 0.003873 kPa
338.68 K, Calculated from knudsen effusion weight loss | 0.004379 kPa
343.7 K, Calculated from knudsen effusion weight loss | 0.006569 kPa
344.41 K, Closed cell (Static) method | 0.0076 kPa
344.43 K, Closed cell (Static) method | 0.0077 kPa
354.01 K, Closed cell (Static) method | 0.0158 kPa
354.03 K, Closed cell (Static) method | 0.0159 kPa
363.15 K, Closed cell (Static) method | 0.0304 kPa
363.16 K, Closed cell (Static) method | 0.0305 kPa
365.75 K, Closed cell (Static) method | 0.036 kPa and 0.0359 kPa
365.77 K, Closed cell (Static) method | 0.0363 kPa
375.29 K, Closed cell (Static) method | 0.0671 kPa
375.31 K, Closed cell (Static) method | 0.0671 kPa
384.96 K, Closed cell (Static) method | 0.121 kPa
394.42 K, Closed cell (Static) method | 0.21 kPa and 0.209 kPa and 0.207 kPa
394.43 K, Closed cell (Static) method | 0.208 kPa
394.47 K, Closed cell (Static) method | 0.207 kPa
403.73 K, Closed cell (Static) method | 0.346 kPa
403.77 K, Closed cell (Static) method | 0.347 kPa
404.25 K, Closed cell (Static) method | 0.352 kPa
404.27 K, Closed cell (Static) method | 0.352 kPa
413.4 K, Closed cell (Static) method | 0.568 kPa
413.43 K, Closed cell (Static) method | 0.569 kPa
414.26 K, Closed cell (Static) method | 0.585 kPa
414.27 K, Closed cell (Static) method | 0.586 kPa
424.06 K, Closed cell (Static) method | 0.94 kPa
424.09 K, Closed cell (Static) method | 0.94 kPa
479.25 K, Ebulliometric method (Recirculating still) | 8.318 kPa
487.77 K, Ebulliometric method (Recirculating still) | 11.06 kPa
494.93 K, Ebulliometric method (Recirculating still) | 13.9 kPa
501 K, Ebulliometric method (Recirculating still) | 16.77 kPa
507.32 K, Ebulliometric method (Recirculating still) | 20.26 kPa
513.93 K, Ebulliometric method (Recirculating still) | 24.53 kPa
520.32 K, Ebulliometric method (Recirculating still) | 29.35 kPa
